One block for each molecule: values may come before it.
Key:
Septoria tritici = assay: in vivo preventive Septoria tritici test (wheat); conditions: preventive spray, evaluated 21 days after inoculation
From the text: (§1) A synergistic effect of fungicides is always present when the fungicidal activity of the active compound combinations exceeds the total of the activities of the active compounds when applied individually. The expected activity for a given combination of two active compounds can be calculated as follows (cf. Colby, S. R., “Calculating Synergistic and Antagonistic Responses of Herbicide Combinations”, Weeds 1967, 15, 20-22): • If • X is the efficacy when active compound A is applied at an application rate of m ppm (or g/ha), • Y is the efficacy when active compound B is applied at an application rate of n ppm (or g/ha), • E is the efficacy when the active compounds A and B are applied at application rates of m and n ppm (or g/ha), respectively, and • then
(§2) The degree of efficacy, expressed in % is denoted. 0% means an efficacy which corresponds to that of the control while an efficacy of 100% means that no disease is observed.
To produce a suitable preparation of active compound, 1 part by weight of active compound or active compound combination is mixed with the stated amounts of solvent and emulsifier, and the concentrate is diluted with water to the desired concentration.
To test for preventive activity, young plants are sprayed with the preparation of active compound or active compound combination at the stated rate of application.
After the spray coating has been dried, the plants are sprayed with a spore suspension of Septoria tritici. The plants remain for 48 hours in an incubation cabinet at approximately 20° C. and a relative atmospheric humidity of approximately 100% and afterwards for 60 hours at approximately 15° C. in a translucent incubation cabinet at a relative atmospheric humidity of approximately 100%.
The plants are placed in the greenhouse at a temperature of approximately 15° C. and a relative atmospheric humidity of approximately 80%.
The test is evaluated 21 days after the inoculation. 0% means an efficacy which corresponds to that of the untreated control, while an efficacy of 100% means that no disease is observed.

Alternaria solani = assay: in vivo preventive test on Alternaria test (tomatoes); conditions: preventive spray, evaluated 3 days after inoculation
From the text: as §1, §2
To produce a suitable preparation of active compound, 1 part by weight of active compound is mixed with the stated amounts of solvent and emulsifier, and the concentrate is diluted with water to the desired concentration.
To test for preventive activity, young plants are sprayed with the preparation of active compound at the stated rate of application. After the spray coating has dried on, the plants are inoculated with an aqueous spore suspension of Alternaria solani. The plants are then placed in an incubation cabinet at approximately 20° C. and a relative atmospheric humidity of 100%.
The test is evaluated 3 days after the inoculation. 0% means an efficacy which corresponds to that of the untreated control while an efficacy of 100% means that no disease is observed.

[1] = log P by HPLC on reversed phase columns (EEC directive 79/831 Annex V.A8); type: physicochemical; conditions: pH 2.7, pH 2,7, 0.1% formic acid in water / acetonitrile gradient
Protocol: Measurement of log P values was performed according EEC directive 79/831 Annex V.A8 by HPLC (High Performance Liquid Chromatography) on reversed phase columns with the following methods: ^[a] Measurement of LC-MS was done at pH 2,7 with 0.1% formic acid in water and with acetonitrile (contains 0.1% formic acid) as eluent with a linear gradient from 10% acetonitrile to 95% acetonitrile. Calibration was done with not branched alkan2-ones (with 3 to 16 carbon atoms) with known log P-values (measurement of log P values using retention times with linear interpolation between successive alkanones). lambda-maX-values were determined using UV-spectra from 200 nm to 400 nm and the peak values of the chromatographic signals.

Structure (SMILES): CC1(C)CN=C(c2cnc3ccccc3c2)c2cccc(F)c2O1 [Compound B1-1, 9-fluoro-2,2-dimethyl-5-(quinolin-3-yl)-2,3-dihydro-1,4-benzoxazepine]
Efficacy in % found (Septoria tritici; 50 ppm a.i.): 25%

Structure (SMILES): Cc1nc2c(F)cccc2cc1Oc1cccc(F)c1C(C)(C)O [Compound B1-2, 2-{2-fluoro-6-[(8-fluoro-2-methylquinolin-3-yl)oxy]phenyl}propan-2-ol]
Efficacy in % found (Septoria tritici; 50 ppm a.i.): 0%

Structure (SMILES): Cc1nc2c(F)c(F)ccc2cc1Oc1cccc(F)c1C(C)(C)O [Compound B1-3, 2-{2-[(7,8-difluoro-2-methylquinolin-3-yl)oxy]-6-fluorophenyl}propan-2-ol]
Efficacy in % found (Septoria tritici; 50 ppm a.i.): 25%

Structure (SMILES): CC1(C)N=C(c2cnc3ccccc3c2)c2ccccc2C1(F)F [Compound B1-4]
Efficacy in % found (Septoria tritici; 60 ppm a.i.): 13%
Efficacy in % found (Alternaria solani; 0.125 ppm a.i.): 0%
Efficacy in % found (Alternaria solani; 0.25 ppm a.i.): 0%
Efficacy in % found (Alternaria solani; 0.5 ppm a.i.): 15%

Structure (SMILES): CON(C(=O)c1cn(C)nc1C(F)F)C(C)Cc1c(Cl)cc(Cl)cc1Cl (stereo not drawn) [Compound I-1, 3-(difluoromethyl)-N-methoxy-1-methyl-N-[1-(2,4,6-trichlorophenyl)propan-2-yl]-1H-pyrazole-4-carboxamide]
Efficacy in % found (Septoria tritici; 5 ppm a.i.): 50%
Efficacy in % found (Septoria tritici; 10 ppm a.i.): 63%
Efficacy in % found (Alternaria solani; 0.125 ppm a.i.): 73%
Efficacy in % found (Alternaria solani; 0.25 ppm a.i.): 85%

chromatographic logP [1]: 4.29
Structure (SMILES): CON(C(=O)c1c(C(F)F)nn(C)c1F)C(C)Cc1c(Cl)cc(Cl)cc1Cl (stereo not drawn) [Compound I-2, 3-(difluoromethyl)-5-fluoro-N-methoxy-1-methyl-N-[1-(2,4,6-trichlorophenyl)propan-2-yl]-1H-pyrazole-4-carboxamide]

— patent publication US20160330959A1, “FUNGICIDAL COMPOSITIONS OF PYRAZOLECARBOXYLIC ACID ALKOXYAMIDES” (BAYER CROPSCIENCE AKTIENGESELLSCHAFT, priority 2014, published 2016)
